Patent US12599620B2, “Method for the treatment of chronic fatigue syndrome using an inhibitory or cytotoxic agent against plasma cells” (Vestlandets Innovasjonsselskap AS, priority 2019, dated 2026)

Tests used:
ME/CFS patients [1] = conditions: cited from earlier work; for effect on ME/CFS symptoms: patients with longstanding ME/CFS given the drug for an acquired cancer
ME/CFS patients [2] = conditions: Patient 2; open-label trial, cyclophosphamide intravenous infusions
ME/CFS patients [3] = test: Bortezomib treatment of ME/CFS patients (case reports Patient 1, Patient 2); assay type: in vivo, human; conditions: for clinical effect on ME/CFS symptoms: PEM, pain
Protocol: They received Bortezomib subcutaneously says 1, 4, 11 and 15. […] They therefore received the third course of Bortezomib as an intravenous infusion with the same dose 1.3 mg/m^2, given at days 1, 4, 8 and 11.
They had increasing energy, increased exertion and was able to perform many new tasks. […] The self-reported symptom improvement was supported by measured steps per 24 hours (Fitbit armband) and in the response period we registered more than 10.000 steps per day.
The effect lasted for approximately 7 weeks before they started experiencing gradual relapse of the ME/CFS symptoms.
[…] Fitbit armband verified […] description of improvement, with increasing steps per 24 hours from mean 1500-2000 before intervention to approximately 4000, up to 7000 on single days, after response.

[4] = tested on: patients with N-Methyl-D-Aspartate (NMDA) receptor antibody-mediated encephalitis; conditions: refractory to first and second line therapy; cited from earlier work
lupus nephritis in mice = conditions: Bortezomib plus B-cell depletion; cited from earlier work

Row | Compound | effect on ME/CFS symptoms (ME/CFS patients [1]) | share of patients with significant clinical improvements of long duration (ME/CFS patients [1]; phase II trial, 6 courses of Cyclophosphamide) | duration of clinical response before gradual relapse (ME/CFS patients [2]) | duration of effect before gradual relapse (ME/CFS patients [3]; Patient 1) | measured steps per 24 hours (Fitbit armband) in the response period (ME/CFS patients [3]; Patient 1) | clinical effect on ME/CFS symptoms (ME/CFS patients [3]; Patient 1, cognitive disturbances, sleep problems) | side effects (ME/CFS patients [3]; Patient 1, first course 1.0 mg/m^2 subcutaneously) | side effects (ME/CFS patients [3]; Patient 1, second course 1.3 mg/m^2 subcutaneously) | side effects (ME/CFS patients [3]; Patient 1, third course 1.3 mg/m^2 intravenous infusion) | start of gradual improvement of ME/CFS symptoms, from start of bortezomib treatment (ME/CFS patients [3]; Patient 1, three courses Bortezomib 1.0-1.3 mg/m^2 sc/iv) | response lasting until time after the last Bortezomib infusion (ME/CFS patients [3]; Patient 2) | steps per 24 hours on single days after response (ME/CFS patients [3]; Patient 2) | side effects (ME/CFS patients [3]; Patient 2, after the last (sixth) course) | start of improvement of ME/CFS symptoms, after start of Bortezomib intervention (ME/CFS patients [3]; Patient 2, courses 1.0 then 1.3 mg/m^2) | clinical effect on ME/CFS symptoms (ME/CFS patients [3]; Patient 2, energy, dizziness, cognitive function) | side effects (ME/CFS patients [3]; Patient 2, first course 1.0 mg/m^2 subcutaneously) | total duration of response before gradual relapse (ME/CFS patients [3]; Patient 2, in total 6 courses) | steps per 24 hours (Fitbit armband) after response (ME/CFS patients [3]; Patient 2, mean 1500-2000 before intervention) | clinical outcome [4] | outcome (lupus nephritis in mice)
1 | O=P1(N(CCCl)CCCl)NCCCO1 (stereo not drawn) [Cyclophosphamide] | significant symptomatic improvement | more than half the patients | almost a year | – | – | – | – | – | – | – | – | – | – | – | – | – | – | – | – | –
2 | O=P1(NCCCl)OCCCN1CCCl (stereo not drawn) [Ifosfamide] | significant symptomatic improvement | – | – | – | – | – | – | – | – | – | – | – | – | – | – | – | – | – | – | –
3 | CC(C)C[C@H](NC(=O)[C@H](Cc1ccccc1)NC(=O)c1cnccn1)B(O)O [Bortezomib] | – | – | – | approximately 7 weeks | more than 10.000 steps per day | gradual improvement of all their ME/CFS symptoms | no bortezomib-associated side effects except an exanthema around the injection site | increasing local reaction at the injection site and with some transient fatigue and pain in the muscles | transient exanthema along the vein on the arm | 10 week | 6 weeks | up to 7000 steps per 24 hours | discomfort in their lower extremities at the legs and feet, and some constipation | 7 weeks | gradual and consistent improvement of all their ME/CS symptoms | minimal skin reaction at the injection site and no other side effects | 16 weeks | approximately 4000 steps per 24 hours | clinical improvement and reduction of pathologic autoantibodies | sustained plasma cell depletion and amelioration of lupus nephritis
